Measured values: publication PMC9095466 (Nature, 2022)
Where “and” joins values, the source holds several entries; their conditions need not be identical. Identical values can stand only once. Like-named read-outs stand apart in the source and are kept apart here.

Columns and labels:
Recombinant human hepsin = target: T1, Recombinant human hepsin (Homo sapiens, UniProt P05981); experiment: Protease selectivity, Ki on recombinant protease; format: biochemical; conditions: mean ± s.d., max concentration 10 µM; read-out: Ki Hepsin
T1 construct: made in house

human cathepsin L = target: T2, human cathepsin L (Homo sapiens, UniProt P07711); experiment: Protease selectivity, Ki on protease; format: biochemical; conditions: mean ± s.d., max concentration 10 µM; read-out: Ki Cathepsin L
T2 construct: purchased Bio-Techne

human thrombin = target: T3, human thrombin (Homo sapiens, UniProt P00734); experiment: Protease selectivity, Ki on protease; format: biochemical; conditions: mean ± s.d., max concentration 10 µM; read-out: Ki Thrombin
T3 construct: purchased MilliporeSigma

Calu-3 cells = experiment: Cytotoxicity CC50 in Calu-3 lung epithelial cells; format: cell-based, human; conditions: single replicates
[1] = Cytotoxicity CC50 in Calu-3 lung epithelial cells; format: cell-based, human; conditions: human, Calu-3 cells; for viability at 24 h, 300 µM: Log [inhibitor] -3.52; for viability at 24 h, 100 µM: Log [inhibitor] -4.00; for viability at 24 h, 30 µM: Log [inhibitor] -4.52; for viability at 24 h, 10 µM: Log [inhibitor] -5.00; for viability at 24 h, 3 µM: Log [inhibitor] -5.52; for viability at 24 h, 0.3 µM: Log [inhibitor] -6.52; for viability at 24 h, 0.03 µM: Log [inhibitor] -7.52; for viability at 24 h, 0.003 µM: Log [inhibitor] -8.52
Recombinant human furin = target: T4, Recombinant human furin (Homo sapiens, UniProt P09958); experiment: Protease selectivity, Ki on recombinant protease; format: biochemical; conditions: mean ± s.d., max concentration 10 µM; read-out: Ki Furin
T4 construct: purchased Bio-Techne

[2] = system: SARS-CoV-2 lineage B strain (VIDO); experiment: microbe, parasite or virus in culture; format: cell-based
Recombinant human DESC1 = target: T5, Recombinant human DESC1 (Homo sapiens, UniProt Q9UL52); experiment: Protease selectivity, Ki on recombinant protease; format: biochemical; conditions: mean ± s.d., max concentration 10 µM; read-out: Ki DESC1
T5 construct: made in house
T5 sequence (Q9UL52 1-423): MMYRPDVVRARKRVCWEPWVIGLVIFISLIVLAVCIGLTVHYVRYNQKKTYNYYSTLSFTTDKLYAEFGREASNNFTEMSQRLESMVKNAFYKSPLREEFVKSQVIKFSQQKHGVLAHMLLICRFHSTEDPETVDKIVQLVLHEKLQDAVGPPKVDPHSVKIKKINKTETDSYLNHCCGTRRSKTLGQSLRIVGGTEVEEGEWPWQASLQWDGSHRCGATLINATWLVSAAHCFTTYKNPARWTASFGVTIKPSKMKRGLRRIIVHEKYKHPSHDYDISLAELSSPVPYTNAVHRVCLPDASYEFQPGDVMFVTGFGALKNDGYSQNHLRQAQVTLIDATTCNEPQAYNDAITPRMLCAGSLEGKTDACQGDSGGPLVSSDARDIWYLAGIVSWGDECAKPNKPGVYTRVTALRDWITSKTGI

[3] = target: T6, Recombinant human matriptase (Homo sapiens, UniProt Q9Y5Y6); experiment: Protease selectivity, Ki on recombinant protease; format: biochemical; conditions: mean ± s.d., max concentration 10 µM; read-out: Ki Matriptase
T6 construct: made in house
T6 sequence (Q9Y5Y6 1-855): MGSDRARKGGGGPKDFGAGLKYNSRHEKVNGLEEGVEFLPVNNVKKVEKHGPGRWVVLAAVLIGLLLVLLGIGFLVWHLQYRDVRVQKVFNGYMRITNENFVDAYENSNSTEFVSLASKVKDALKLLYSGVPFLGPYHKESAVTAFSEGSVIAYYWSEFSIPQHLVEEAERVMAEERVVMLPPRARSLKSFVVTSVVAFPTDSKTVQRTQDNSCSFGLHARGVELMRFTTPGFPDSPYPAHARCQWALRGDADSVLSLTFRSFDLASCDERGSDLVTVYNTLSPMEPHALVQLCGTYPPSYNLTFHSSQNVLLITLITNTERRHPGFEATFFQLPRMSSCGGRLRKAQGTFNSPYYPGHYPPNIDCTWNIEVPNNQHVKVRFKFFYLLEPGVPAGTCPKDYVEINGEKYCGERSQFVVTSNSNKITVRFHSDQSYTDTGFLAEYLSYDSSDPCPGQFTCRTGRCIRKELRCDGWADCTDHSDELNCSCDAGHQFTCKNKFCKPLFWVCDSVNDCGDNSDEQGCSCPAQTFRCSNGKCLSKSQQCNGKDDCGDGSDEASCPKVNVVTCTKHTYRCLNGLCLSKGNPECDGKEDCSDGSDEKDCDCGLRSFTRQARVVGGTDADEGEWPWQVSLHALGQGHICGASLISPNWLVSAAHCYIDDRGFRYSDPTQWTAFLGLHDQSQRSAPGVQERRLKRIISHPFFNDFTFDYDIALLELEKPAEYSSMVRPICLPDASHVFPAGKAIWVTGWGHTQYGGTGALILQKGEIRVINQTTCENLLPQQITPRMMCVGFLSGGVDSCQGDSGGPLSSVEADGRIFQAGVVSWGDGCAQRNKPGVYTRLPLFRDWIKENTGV

human TMPRSS2 = human TMPRSS2 (Homo sapiens, UniProt O15393); experiment: cell-based; conditions: for TMPRSS2 relative activity: technical duplicates
[4] = read-out: % of Viability, Average (n=2)
[5] = single replicates, read-out: % of Viability

Chain of human TMPRSS2 (O15393 whole entry): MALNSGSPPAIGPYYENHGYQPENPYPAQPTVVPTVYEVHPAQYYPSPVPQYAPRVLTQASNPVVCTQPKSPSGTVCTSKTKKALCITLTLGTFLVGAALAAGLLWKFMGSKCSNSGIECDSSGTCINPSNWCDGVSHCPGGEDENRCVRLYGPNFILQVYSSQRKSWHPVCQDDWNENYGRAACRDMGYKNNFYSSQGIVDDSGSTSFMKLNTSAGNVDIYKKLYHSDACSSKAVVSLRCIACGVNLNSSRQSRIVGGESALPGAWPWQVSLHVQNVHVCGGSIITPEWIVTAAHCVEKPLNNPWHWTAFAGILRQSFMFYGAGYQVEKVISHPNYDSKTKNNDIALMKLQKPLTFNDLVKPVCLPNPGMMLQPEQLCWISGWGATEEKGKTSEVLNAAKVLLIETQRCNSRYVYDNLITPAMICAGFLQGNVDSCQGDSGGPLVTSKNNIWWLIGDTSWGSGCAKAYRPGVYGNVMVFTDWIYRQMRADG
T4 sequence (P09958 108-794): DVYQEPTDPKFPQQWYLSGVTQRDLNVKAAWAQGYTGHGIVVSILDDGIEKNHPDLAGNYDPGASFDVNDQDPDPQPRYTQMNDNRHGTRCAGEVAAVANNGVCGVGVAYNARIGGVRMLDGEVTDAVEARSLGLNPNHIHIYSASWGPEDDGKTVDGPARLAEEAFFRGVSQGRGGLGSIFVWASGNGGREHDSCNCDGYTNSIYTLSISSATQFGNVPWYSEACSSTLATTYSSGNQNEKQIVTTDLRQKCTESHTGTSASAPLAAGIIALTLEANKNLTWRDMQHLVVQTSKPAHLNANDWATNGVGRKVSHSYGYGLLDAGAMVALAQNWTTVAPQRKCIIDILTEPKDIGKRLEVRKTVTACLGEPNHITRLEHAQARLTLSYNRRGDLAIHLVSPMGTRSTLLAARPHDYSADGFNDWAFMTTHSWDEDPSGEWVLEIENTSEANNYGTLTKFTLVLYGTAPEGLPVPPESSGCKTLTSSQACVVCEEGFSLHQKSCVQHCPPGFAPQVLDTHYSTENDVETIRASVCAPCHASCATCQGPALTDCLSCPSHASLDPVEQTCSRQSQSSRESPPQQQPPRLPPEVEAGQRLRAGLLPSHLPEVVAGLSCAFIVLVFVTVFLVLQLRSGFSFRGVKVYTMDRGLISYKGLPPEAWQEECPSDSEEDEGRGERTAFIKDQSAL
T2 sequence (P07711 114-333): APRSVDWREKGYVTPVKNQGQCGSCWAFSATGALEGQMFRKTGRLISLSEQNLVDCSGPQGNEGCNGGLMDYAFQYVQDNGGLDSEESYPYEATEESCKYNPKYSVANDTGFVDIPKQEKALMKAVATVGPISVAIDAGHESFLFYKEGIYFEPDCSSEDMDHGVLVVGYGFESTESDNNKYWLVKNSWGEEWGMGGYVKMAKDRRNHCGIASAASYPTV
T1 sequence (P05981 whole entry): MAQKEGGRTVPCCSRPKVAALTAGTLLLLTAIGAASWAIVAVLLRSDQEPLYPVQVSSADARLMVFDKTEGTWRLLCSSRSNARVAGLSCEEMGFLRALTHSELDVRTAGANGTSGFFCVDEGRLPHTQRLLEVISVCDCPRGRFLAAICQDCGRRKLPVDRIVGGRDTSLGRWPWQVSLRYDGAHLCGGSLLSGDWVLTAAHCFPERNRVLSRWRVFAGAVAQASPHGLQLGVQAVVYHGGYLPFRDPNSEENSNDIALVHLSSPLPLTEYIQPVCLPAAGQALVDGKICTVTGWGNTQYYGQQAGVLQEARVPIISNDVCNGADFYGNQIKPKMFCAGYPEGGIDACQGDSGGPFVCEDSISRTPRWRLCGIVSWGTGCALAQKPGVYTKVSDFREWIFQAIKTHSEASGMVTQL

Structure (SMILES): N=C(N)NCCCCC(=O)N[C@@H](CCC(=O)O)C(=O)N[C@@H](Cc1ccccc1)C(=O)N[C@@H](CCCNC(=N)N)C(=O)c1nc2ccccc2s1 [Compound N-0438, (H)REFR-kbt]
- Ki (Recombinant human hepsin): 0.52 ± 0.07 nM
- Ki (human cathepsin L): > 10000 nM
- Ki (human thrombin): > 10000 nM
- % of Viability (Calu-3 cells; Log [inhibitor] -2.52): 12% and 39%
- % of Viability (Calu-3 cells; Log [inhibitor] -4.00): 91%
- % of Viability (Calu-3 cells; Log [inhibitor] -5.00): 85%
- % of Viability (Calu-3 cells; Log [inhibitor] -5.52): 97%
- viability at 24 h, 3000 µM ([1]; Log [inhibitor] -2.52, read-out: % of Viability, Average (n=2)): 25.5%
- viability at 24 h, 300 µM [1, 4]: 87.5%
- viability at 24 h, 300 µM [1, 5]: 86%
- viability at 24 h, 100 µM [1, 4]: 86%
- viability at 24 h, 100 µM [1, 5]: 81%
- viability at 24 h, 30 µM [1, 4]: 89%
- viability at 24 h, 30 µM [1, 5]: 89%
- viability at 24 h, 10 µM [1, 4]: 89%
- viability at 24 h, 10 µM [1, 5]: 93%
- viability at 24 h, 3 µM [1, 4]: 99%
- viability at 24 h, 3 µM [1, 5]: 101%
- viability at 24 h, 0.3 µM [1, 4]: 108%
- viability at 24 h, 0.3 µM [1, 5]: 111%
- viability at 24 h, 0.03 µM [1, 4]: 103%
- viability at 24 h, 0.03 µM [1, 5]: 107%
- viability at 24 h, 0.003 µM [1, 4]: 104%
- viability at 24 h, 0.003 µM [1, 5]: 109%
- CC50 at 24 h ([1]; unit not given for CC50, read-out: CC50): 980000 nM
- Ki (Recombinant human furin): > 10000 nM
- Nucleocapsid ([2]; Figure 2a, two replicates, DMSO control about 91-94): 4.61 and 18.8861
- dsRNA ([2]; Figure 2a, two replicates, DMSO control about 93-95): 14.5614 and 27.1131
- EC50 ([2]; Severe acute respiratory syndrome coronavirus 2, Calu-3, read-out: SARS-CoV-2 VIDO Nucleocapsid EC50 ± SE): 35.7 ± 24.5 nM
- inhibition at 0.1 µM ([2]; Severe acute respiratory syndrome coronavirus 2, Calu-3, read-out: inhibition of SARS-CoV-2 infection): > 88%
- Figure 2b dose-response, Mean ([2]; log [C] (nM) 0.20412): 87.8313
- Figure 2b dose-response, Mean ([2]; log [C] (nM) 0.90309): 62.8653
- Figure 2b dose-response, Mean ([2]; log [C] (nM) 1.60206): 44.3084
- Figure 2b dose-response, Mean ([2]; log [C] (nM) 2.30103): 28.0955
- Figure 2b dose-response, Mean ([2]; log [C] (nM) 3): 3.627
- Figure 2b dose-response, Mean ([2]; log [C] (nM) -0.49485): 89.252
- Figure 2b dose-response, Mean ([2]; log [C] (nM) -1.19382): 94.5427
- Ki (Recombinant human DESC1): 31 ± 3 nM
- Ki [3]: 1.11 ± 0.09 nM
- TMPRSS2 relative activity (human TMPRSS2; 1.60E-10 M): 86.6686 and 86.7823
- TMPRSS2 relative activity (human TMPRSS2; 2.00E-08 M): 4.266 and 6.221
- TMPRSS2 relative activity (human TMPRSS2; 3.20E-11 M): 102.504 and 103.881
- TMPRSS2 relative activity (human TMPRSS2; 4.00E-09 M): 35.2539 and 37.178
- TMPRSS2 relative activity (human TMPRSS2; 8.00E-10 M): 70.1907 and 73.6892
- IC50 (human TMPRSS2; TMPRSS2, mean of independent experiments, Figure 1C, read-out: IC50 Mean): 5.17 nM
- inhibition at 0.01 µM (human TMPRSS2; Vero C1008, 10 nM compound, 24 h, vs untreated/vehicle TMPRSS2-expressing Vero E6 cells, read-out: inhibition of TMPRSS2 activity (reduction of substrate proteolysis)): 84%
- IC50 (human TMPRSS2; Vero E6 cells expressing human TMPRSS2, 24 h with fluorogenic substrate, read-out: TMPRSS2 IC50 ± SD): 5.2 ± 5.4 nM
